Results from patent US9115150B2, “Camptothecin compound containing stable 7-membered lactone ring, preparation method and use” (EAST CHINA NORMAL UNIVERSITY, priority 2012, dated 2015).

Legend:
HCT-116 cells = test: Anti-tumor (cytotoxic) activity assay, SRB method, HCT-116; type: cell-based; conditions: Homo sapiens, HCT-116 tumor cells, 72 h at 37° C., read-out: growth inhibition activity on HCT-116 cells, IC50
Procedure: (§1) All the cytotoxic activity assays of the compounds were conducted on corresponding tumor cell lines. There were 6000˜10000 tumor cells per 100 μL of culture medium, and they were placed in a 96-well plate (Falcon, Calif.). The tumor cells were divided into 3 parts, and treated with drugs having gradient concentrations. The tumor cells were cultivated for 72 h at 37° C., and assayed using SRB method. The concentration that 50% of the growth of the tumor cells growth was inhibited, i.e., IC50, was calculated from dosage-activity curves.

A549 cells = test: Anti-tumor (cytotoxic) activity assay, SRB method, A549; type: cell-based; conditions: Homo sapiens, 72 h at 37° C., read-out: growth inhibition activity on A549 cells, IC50
Procedure: as §1

| SMILES | IC50 (HCT-116 cells) | IC50 (A549 cells) |
| --- | --- | --- |
| CC[C@]1(O)c2cc3n(c(=O)c2COC(=O)[C@@H]1OC(C)=O)Cc1cc2cc4c(cc2nc1-3)OCCO4 [Ysb-7] | 4.9 ± 4.1 nM | 4.6 ± 2.9 nM |
| CC[C@]1(O)c2cc3n(c(=O)c2COC(=O)[C@@H]1OC(C)=O)Cc1cc2ccccc2nc1-3 [Ysb-1, (20S,20aR)-20a-acetoxyhomocamptothecin] | 14.2 ± 6.1 nM | 49.2 ± 34.6 nM |
| CCc1c2c(nc3ccc(O)cc13)-c1cc3c(c(=O)n1C2)COC(=O)[C@]3(O)CC [SN-38, reference compound] | 40.8 ± 5.8 nM | 30.4 ± 11.5 nM |
| CC[C@]1(O)c2cc3n(c(=O)c2COC(=O)[C@@H]1O)Cc1cc2cc4c(cc2nc1-3)OCCO4 [Ysb-8] | 3.4 ± 1.2 nM | 2.9 ± 1.3 nM |
| CC[C@]1(O)c2cc3n(c(=O)c2COC(=O)[C@@H]1O)Cc1cc2ccccc2nc1-3 [Ysb-2, (20S,20aR)-20a-hydroxylhomocamptothecin] | 49.3 ± 15 nM | 16.8 ± 4.2 nM |
| CC[C@]1(O)c2cc3n(c(=O)c2COC(=O)[C@@H]1O)Cc1cc2cc4c(cc2nc1-3)OCO4 [Ysb-6, (20S,20aR)-9,10-(1,3-dioxolane)-20a-hydroxylhomocamptothecin] | 3.1 ± 0.7 nM | 3.1 ± 1.6 nM |
| CCc1c2c(nc3ccc(O)cc13)-c1cc3c(c(=O)n1C2)COC(=O)[C@H](OC(C)=O)[C@]3(O)CC [Ysb-9, (20S,20aR)-10-hydroxyl-7-ethyl-20a-acetoxy homocamptothecin] | 133 ± 18.7 nM | 226 ± 15.8 nM |
| CC[C@]1(O)c2cc3n(c(=O)c2COC(=O)[C@@H]1OC(C)=O)Cc1cc2cc4c(cc2nc1-3)OCO4 [Ysb-5] | 2.1 ± 0.3 nM | 1.2 ± 0.7 nM |
| CC[C@@]1(O)C(=O)OCc2c1cc1n(c2=O)Cc2cc3cc(O)ccc3nc2-1 [Compound 10-HCPT, 10-hydroxylcamptothecin, reference compound] | 31.2 ± 8.2 nM | 33.6 ± 17.8 nM |
| CC[C@]1(O)c2cc3n(c(=O)c2COC(=O)[C@@H]1OC(C)=O)Cc1cc2cc(OC)ccc2nc1-3 [Ysb-3, (20S,20aR)-10-methoxy-20a-acetoxyhomocamptothecin] | 4.4 ± 1 nM | 4.7 ± 1.1 nM |
| CC[C@@]1(O)C(=O)OCc2c1cc1n(c2=O)Cc2cc3ccccc3nc2-1 [CPT, Camptothecin] | 22.9 ± 12 nM | 33.8 ± 13.9 nM |
| CC[C@]1(O)c2cc3n(c(=O)c2COC(=O)[C@@H]1O)Cc1cc2cc(OC)ccc2nc1-3 [Ysb-4, (20S,20aR)-10-methoxy-20a-hydroxylhomocamptothecin] | 10.6 ± 6.2 nM | 4.8 ± 3.6 nM |
| CCc1c2c(nc3ccc(O)cc13)-c1cc3c(c(=O)n1C2)COC(=O)[C@H](O)[C@]3(O)CC [Ysb-10, (20S,20aR)-10-hydroxyl-7-ethyl-20a-hydroxyl homocamptothecin] | 366 ± 213 nM | 30.3 ± 18.4 nM |
